Measurements from article PMC5452050 (ACS Omega, 2017).
Numbering of substitutions follows the chain as printed.

How the values were obtained:
Assay in all cases: Kd determination
Type in all cases: binding
FLT3 (K663Q) = biological target: T1, FLT3 (K663Q) (Homo sapiens, UniProt P36888, K663Q)
T1 sequence (P36888 27-993 K663Q): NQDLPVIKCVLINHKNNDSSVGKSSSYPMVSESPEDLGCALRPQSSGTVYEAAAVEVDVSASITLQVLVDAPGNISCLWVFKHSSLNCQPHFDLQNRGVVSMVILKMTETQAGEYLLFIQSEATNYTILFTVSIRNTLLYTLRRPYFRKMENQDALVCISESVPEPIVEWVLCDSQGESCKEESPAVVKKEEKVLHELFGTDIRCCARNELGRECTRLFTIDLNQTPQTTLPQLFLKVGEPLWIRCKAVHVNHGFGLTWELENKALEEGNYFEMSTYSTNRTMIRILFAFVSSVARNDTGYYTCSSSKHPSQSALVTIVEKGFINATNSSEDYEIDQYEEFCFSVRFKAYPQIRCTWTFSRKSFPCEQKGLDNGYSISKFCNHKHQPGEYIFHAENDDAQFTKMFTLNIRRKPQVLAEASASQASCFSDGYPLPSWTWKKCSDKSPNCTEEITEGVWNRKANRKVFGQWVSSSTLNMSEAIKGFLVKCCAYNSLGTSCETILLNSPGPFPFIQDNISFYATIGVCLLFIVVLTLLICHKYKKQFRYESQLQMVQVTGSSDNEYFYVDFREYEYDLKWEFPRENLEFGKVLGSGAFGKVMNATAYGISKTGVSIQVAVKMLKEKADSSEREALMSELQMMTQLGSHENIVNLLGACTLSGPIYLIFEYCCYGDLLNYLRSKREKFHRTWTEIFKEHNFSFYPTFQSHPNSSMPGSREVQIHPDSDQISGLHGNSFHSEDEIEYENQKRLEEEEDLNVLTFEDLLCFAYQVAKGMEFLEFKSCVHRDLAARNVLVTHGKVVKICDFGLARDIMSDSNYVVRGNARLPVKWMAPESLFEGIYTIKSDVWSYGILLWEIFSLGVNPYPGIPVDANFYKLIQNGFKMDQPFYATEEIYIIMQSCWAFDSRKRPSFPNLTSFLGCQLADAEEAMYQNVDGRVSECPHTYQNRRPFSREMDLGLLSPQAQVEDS

FLT3 (R834Q) = biological target: T2, FLT3 (R834Q) (Homo sapiens, UniProt P36888, R834Q)
T2 sequence (P36888 27-993 R834Q): T1 sequence (P36888 27-993 K663Q) with Q637K, R808Q

FLT3 (D835H) = biological target: T3, FLT3 (D835H) (Homo sapiens, UniProt P36888, D835H)
T3 sequence (P36888 27-993 D835H): T1 sequence (P36888 27-993 K663Q) with Q637K, D809H

CC(C)Nc1ccnc(Nc2cccc(-c3cccnc3)c2)n1 [Compound 5e, N^4-Isopropyl-N^2-(3-(pyridin-3-yl)phenyl)pyrimidine-2,4-diamine]
Kd (FLT3 (K663Q)): 13 nM | Kd (FLT3 (R834Q)): 82 nM | Kd (FLT3 (D835H)): 1.2 nM

c1cncc(-c2cccc(Nc3nccc(NC4CCCCC4)n3)c2)c1 [Compound 1, N^4-Cyclohexyl-N^2-(3-(pyridin-3-yl)phenyl)pyrimidine-2,4-diamine]
Kd (FLT3 (K663Q)): 110 nM | Kd (FLT3 (R834Q)): 680 nM | Kd (FLT3 (D835H)): 22 nM

CC(C)Nc1ccnc(Nc2ccccc2-c2ccccc2)n1 [Compound 6a, N^2-([1,1′-Biphenyl]-2-yl)-N^4-isopropylpyrimidine-2,4-diamine]
Kd (FLT3 (K663Q)): > 10000 nM | Kd (FLT3 (R834Q)): > 10000 nM | Kd (FLT3 (D835H)): > 10000 nM
